# Measurements: publication PMC7689752 (Clinical Pharmacology and Therapeutics, 2020)
# How the values were obtained:
# [1] = Integrated population pharmacokinetic model; format: in vivo, human; conditions: for PNA on Cl: increase of clearance per hour of postnatal age, first 5 days of life; for Decrease of clearance during TH compared with normothermia: 33.5°C vs 36.5°C; for TEMP on Cl: reduction of clearance per °C of body temperature below 36.5°C
# [2] = parameters: species or system human; conditions: prediction for high-clearance drugs, not studied here
# [3] = interindividual variability in clearance, common eta
Compound,PNA on Cl [1] [%/h],"Correlation in clearance with Midazolam [1, 3] [%]","Correlation in clearance with Morphine [1, 3] [%]","Correlation in clearance with OHM [1, 3] [%]",further results
"CC1(C)S[C@@H]2[C@H](NC(=O)Cc3ccccc3)C(=O)N2[C@H]1C(=O)O [Benzylpenicillin, benzylpenicillin]",1.23,52.8,58.6,53.4,"Correlation in clearance with Amoxicillin [1, 3]: 35.5%; Correlation in clearance with HMG [1, 3]: 52.8%; Correlation in clearance with M6G [1, 3]: 27.4%"
N=C1N[C@H]2[C@H](CS[C@H]2CCCCC(=O)O)N1 [2‐iminobiotin],–,–,–,–,Expected change of clearance with PNA [2]: The same prediction can be made
"CC1(C)S[C@@H]2[C@H](NC(=O)[C@H](N)c3ccc(O)cc3)C(=O)N2[C@H]1C(=O)O [Amoxicillin, amoxicillin]",1.23,–,–,–,–
"OCc1ncc2n1-c1ccc(Cl)cc1C(c1ccccc1F)=NC2 [OHM, 1‐hydroxymidazolam]",0.540,57.0,63.3,–,Decrease of clearance during TH compared with normothermia [1]: 20.5%; TEMP on Cl [1]: 6.83 %/°C
"O=C(O)[C@H]1O[C@@H](OCc2ncc3n2-c2ccc(Cl)cc2C(c2ccccc2F)=NC3)[C@H](O)[C@@H](O)[C@@H]1O [HMG, hydroxymidazolam glucuronide]",1.23,56.4,62.6,57.0,"Correlation in clearance with M3G [1, 3]: 31.9%; Correlation in clearance with M6G [1, 3]: 29.3%"
"CCC1(c2ccccc2)C(=O)NC(=O)NC1=O [Phenobarbital, phenobarbital]",–,–,–,–,PNA as covariate on clearance (in words) ([1]; recovery of organ function): No effect of PNA was identified
"CNC(C)C1CCC(N)C(OC2C(N)CC(N)C(OC3OCC(C)(O)C(NC)C3O)C2O)O1 (stereo not shown) [Gentamicin, gentamicin]",1.23,41.4,45.9,41.8,"Correlation in clearance with Amoxicillin [1, 3]: 27.9%; Correlation in clearance with Benzylpenicillin [1, 3]: 38.8%; Correlation in clearance with HMG [1, 3]: 41.4%; Correlation in clearance with M3G [1, 3]: 23.4%; Correlation in clearance with M6G [1, 3]: 21.5%"
CC[C@@H](C(N)=O)N1CCCC1=O [levetiracetam],–,–,–,–,Expected change of clearance with PNA [2]: clearance increases strongly with PNA
"Cc1ncc2n1-c1ccc(Cl)cc1C(c1ccccc1F)=NC2 [Midazolam, midazolam]",0.540,–,62.2,–,Decrease of clearance during TH compared with normothermia [1]: 20.5%; TEMP on Cl [1]: 6.83 %/°C
"CN1CC[C@]23c4c5ccc(O[C@@H]6O[C@H](C(=O)O)[C@@H](O)[C@H](O)[C@H]6O)c4O[C@H]2[C@@H](O)C=C[C@H]3[C@H]1C5 [M3G, morphine‐3‐glucuronide]",1.23,31.9,35.4,32.2,–
"CN1CC[C@]23c4c5ccc(O)c4O[C@H]2[C@@H](O[C@@H]2O[C@H](C(=O)O)[C@@H](O)[C@H](O)[C@H]2O)C=C[C@H]3[C@H]1C5 [M6G, morphine‐6‐glucuronide]",1.23,29.3,32.5,29.6,"Correlation in clearance with M3G [1, 3]: 94.8%"
"CCNCC(=O)Nc1c(C)cccc1C [MEGX, monoethylglycinexylidide]",1.23,–,–,–,–
Oc1ncnc2[nH]ncc12 [allopurinol],–,–,–,–,Expected change of clearance with PNA [2]: The same prediction can be made
